Experimental data reported in ChEMBL document CHEMBL3102775, “UK-1 and structural analogs are potent inhibitors of hepatitis C virus replication” (Bioorg Med Chem Lett, 2014).
pEC50, pIC50: −log10 of the molar value. The source made the active and inactive calls. The rule behind the calls is not given here.

Key:
[1] = system: Human immunodeficiency virus 1; test: Antiviral activity against HIV1; format: functional, organism-based
[2] = Cytotoxicity against human Huh7ET cells by neutral red assay; format: cell-based, Huh-7
Hepatitis C virus [3] = test: Antiviral activity against HCV infected in human Huh7ET cells assessed as inhibition of viral replication by luciferase reporter gene assay/RNA blot hybridization analysis; format: functional, organism-based, Hepacivirus hominis; conditions: Huh-7
[4] = Inhibition of HCV NS3 NTPase/helicase domain expressed in Escherichia coli BL21 using dsDNA as substrate assessed as strand separation of [32P]-labeled oligonucleotides after 30 mins by SDS-gel electrophoresis; set-up: species or system Hepacivirus hominis
[5] = Inhibition of HCV ATPase activity of NS3 NTPase/helicase domain expressed in Escherichia coli BL21 after 30 mins by thin layer chromatography in presence of [gamma-32P]ATP; set-up: species or system Hepacivirus hominis
[6] = Inhibition of HCV NS3 NTPase/helicase domain expressed in Escherichia coli BL21 using dsRNA as substrate assessed as strand separation of [32P]-labeled oligonucleotides after 30 mins by SDS-gel electrophoresis; set-up: species or system Hepacivirus hominis
[7] = Inhibition of Dengue virus helicase
Hepacivirus hominis = test: Inhibition of HCV NS5B RNA dependent RNA polymerase at 100 uM
[8] = Selectivity index, ratio of CC50 for human Huh7ET cells to EC50 for HCV infected in human Huh7ET cells; set-up: species or system Huh-7
[9] = Binding affinity to double stranded DNA assessed as effect on Eco-RI-digested pT7-7 plasmid mobilization at 20 to 500 uM after 60 mins by agarose gel mobility assay
[10] = Binding affinity to double stranded RNA assessed as effect on Eco-RI-digested pT7-7 plasmid mobilization at 20 to 500 uM after 60 mins by agarose gel mobility assay
[11] = Selectivity index, ratio of CC50 for human Huh7ET cells by luciferase reporter gene assay to EC50 for HCV infected in human Huh7ET cells by luciferase reporter gene assay; set-up: species or system Huh-7
Hepatitis C virus [12] = test: Antiviral activity against HCV infected in human Huh7ET cells assessed as inhibition of viral replication by luciferase reporter gene assay; format: functional, organism-based, Hepacivirus hominis; conditions: Huh-7
[13] = Cytotoxicity against human Huh7ET cells by luciferase reporter gene assay; format: cell-based; conditions: huh-7

Row | SMILES | Activity [1] | CC50 ([2]; huh-7) [µM] | pEC50 (Hepatitis C virus [3]) | pIC50 [4] | pIC50 [5] | pIC50 [6] | pIC50 [7] | inhibition (Hepacivirus hominis) [%] | Ratio CC50/EC50 [8] | CC50 ([2]; Huh7ET cells) [µM] | Activity [9] | Activity [10] | Ratio CC50/EC50 [11] | pEC50 (Hepatitis C virus [12]) | CC50 [13] [µM]
1 | O=C(O)c1cccc2oc(-c3ccccc3O)nc12 | inactive | 3.5 | 6.28 | < 2.74 | < 2.92 | < 2.74 | < 3.15 | < 30 | 6.6 | – | – | – | – | – | –
2 | COC(=O)c1cccc2oc(-c3ccc4ccccc4c3O)nc12 | inactive | 2.5 | 6.28 | 3.27 | < 2.92 | 3.23 | < 3.15 | < 30 | 4.7 | – | – | – | – | – | –
3 | COC(=O)c1cccc2oc(-c3cccc4oc(-c5ccccc5O)nc34)nc12 | – | 17 | 6.11 | 3.42 | < 2.92 | < 2.92 | < 3.15 | < 30 | 22 | – | – | – | – | – | –
4 | COC(=O)c1cccc2oc(-c3ccc4ccc(OCc5ccccc5)cc4c3O)nc12 | inactive | – | 6.27 | 5.59 | < 2.92 | 4.70 | < 3.15 | < 30 | >37 | > 20 | inactive | inactive | – | – | –
5 | CNC(=O)c1cccc2oc(-c3ccccc3O)nc12 | inactive | – | – | < 2.74 | < 2.92 | < 2.74 | < 3.15 | < 30 | – | – | – | – | 4.5 | 5.85 | 6.3
6 | COC(=O)c1cccc2oc(-c3ccccc3O)nc12 | inactive | 5.4 | 6.30 | < 2.74 | < 2.92 | < 2.74 | < 3.15 | < 30 | 11 | – | – | – | – | – | –
7 | COC(=O)c1cccc2oc(-c3ccc4c(OCc5ccccc5)cccc4c3O)nc12 | inactive | – | 5.68 | 5.42 | < 2.92 | 4.70 | < 3.15 | < 30 | >10 | > 20 | inactive | inactive | – | – | –
